One may read the IC50 as the midpoint of a concentration-inhibition curve. In general, Ki refers to a dissociation constant, usually derived from enzyme kinetics or from competition with a known ligand. A low value points to higher affinity.

Values joined by “and” are separate entries in the source; they are usually repeats but may differ in a detail not shown here. Identical values can stand only once.

One experiment has as its target Prothrombin (Homo sapiens, UniProt P00734). Kind of experiment: Enzyme Inhibition Assay. As for the experimental part:
Thrombin-catalyzed hydrolysis rates were measured spectrophotometrically using human alpha-thrombin, a chromogenic substrate in aqueous buffer, and a microplate reader. […] The IC50 values were determined by fixing the enzyme and substrate concentrations and varying the inhibitor concentration. Ki values were determined by fixing the enzyme and inhibitor concentrations and varying the substrate concentration. Michaelis-Menton kinetics was applied to the initial reaction slopes using the program K.Cat (Bio Metallics Inc.).

Another experiment concerns the target T1, Serine protease 1 (Bos taurus, UniProt P00760).
T1 sequence (P00760 whole entry): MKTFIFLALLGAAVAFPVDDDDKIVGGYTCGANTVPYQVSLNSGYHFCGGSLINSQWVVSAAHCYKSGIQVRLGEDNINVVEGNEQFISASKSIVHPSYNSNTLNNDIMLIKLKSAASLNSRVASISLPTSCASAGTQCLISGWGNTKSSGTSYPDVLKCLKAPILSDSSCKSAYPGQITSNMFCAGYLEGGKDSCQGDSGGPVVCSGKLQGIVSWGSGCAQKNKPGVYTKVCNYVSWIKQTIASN
Kind of experiment: Enzyme Inhibition Assay.

Turning to `CN[C@H](Cc1ccccc1)C(=O)N1CCC[C@H]1C(=O)N[C@@H](CCCNC(=N)N)C(=O)c1cc2ccccc2s1`, the IC50 at Prothrombin turned out to be 13000 nM.

For `CN[C@H](Cc1ccccc1)C(=O)N1CCC[C@H]1C(=O)N[C@@H](CCCN=C(N)N)C(=O)c1nc2ccc(C(=O)O)cc2s1` [2-[(2S)-5-carbamimidamido-2-{[(2S)-1-[(2R)-2-(methylamino)-3-phenylpropanoyl]pyrrolidin-2-yl]formamido}pentanoyl]-1,3-benzothiazole-6-carboxylic acid], the Ki on Serine protease 1 stood at 2.7 nM.

Compound `N=C(N)NCCCCC(=O)c1nc2ccccc2s1` [3-[5-(1,3-benzothiazol-2-yl)-5-oxopentyl]guanidine] had a Ki on Serine protease 1 above 100000 nM. Besides, the IC50 against Prothrombin was above 300000 nM.

In the case of `NC(N)=NCCCC(NC(=O)[C@@H]1CCCN1C(=O)C(N)(c1ccccc1)c1ccccc1)C(=O)c1nc2ccccc2s1` (stereo partly drawn) [(2S)-1-(2-amino-2,2-diphenylacetyl)-N-[1-(1,3-benzothiazol-2-yl)-5-carbamimidamido-1-oxopentan-2-yl]pyrrolidine-2-carboxamide], the Ki at Serine protease 1 amounted to 1.8 nM. For the same compound, on Prothrombin (pH 7.4, 37 °C), the IC50 was determined as 15 nM and the Ki was found to be 2.1 nM.

Regarding `CC(N)(Cc1ccccc1)C(=O)N1CCC[C@H]1C(=O)NC(CCCN=C(N)N)C(=O)c1nc2ccccc2s1` (stereo partly drawn) [(2S)-1-(2-amino-2-benzylpropanoyl)-N-[1-(1,3-benzothiazol-2-yl)-5-carbamimidamido-1-oxopentan-2-yl]pyrrolidine-2-carboxamide], affinity at Serine protease 1 was put at a Ki of 3.9 nM.

Compound `NC(N)=NCCCC(NC(=O)[C@@H]1CCCN1C(=O)[C@@H](N)Cc1ccccc1)C(=O)c1nc2ccccc2s1` (stereo partly drawn) [(2S)-1-[(2S)-2-amino-3-phenylpropanoyl]-N-[1-(1,3-benzothiazol-2-yl)-5-carbamimidamido-1-oxopentan-2-yl]pyrrolidine-2-carboxamide] gave an IC50 against Serine protease 1 of 5.8 nM.

With `CN[C@H](Cc1ccccc1)C(=O)N1CCC[C@H]1C(=O)NC(CCCN=C(N)N)C(O)c1nc2ccccc2s1` (stereo partly drawn) [(2S)-N-[1-(1,3-benzothiazol-2-yl)-5-carbamimidamido-1-hydroxypentan-2-yl]-1-[(2R)-2-(methylamino)-3-phenylpropanoyl]pyrrolidine-2-carboxamide], the Ki at Serine protease 1 is 180000 nM and 250000 nM. Further, on Prothrombin, the IC50 was 48000 nM and 17000 nM; the Ki was 5300 nM and 1600 nM.

`CN[C@@H](C(=O)N1CCC[C@H]1C(=O)NC(CCCN=C(N)N)C(=O)c1nc2ccccc2s1)c1ccccc1` (stereo partly drawn) [(2S)-N-[1-(1,3-benzothiazol-2-yl)-5-carbamimidamido-1-oxopentan-2-yl]-1-[(2R)-2-(methylamino)-2-phenylacetyl]pyrrolidine-2-carboxamide] registered an IC50 against Serine protease 1 of 32 nM.

Consider `CN[C@H](Cc1ccccc1)C(=O)N1CCC[C@H]1C(=O)NC(CCCN=C(N)N)C(=O)c1nc2ccccc2s1` (stereo partly drawn) [(2S)-N-[1-(1,3-benzothiazol-2-yl)-5-carbamimidamido-1-oxopentan-2-yl]-1-[(2R)-2-(methylamino)-3-phenylpropanoyl]pyrrolidine-2-carboxamide], for which, at Prothrombin (pH 7.4, 37 °C), the IC50 was 29 nM and the Ki was found to be 0.2 nM.

As for `CN[C@H](Cc1ccc(F)cc1)C(=O)N1CCC[C@H]1C(=O)NC(CCCN=C(N)N)C(=O)c1nc2ccccc2s1` (stereo partly drawn) [(2S)-N-[1-(1,3-benzothiazol-2-yl)-5-carbamimidamido-1-oxopentan-2-yl]-1-[(2R)-3-(4-fluorophenyl)-2-(methylamino)propanoyl]pyrrolidine-2-carboxamide], the Ki on Serine protease 1 turned out to be 3.3 nM.

`NC(N)=NCCCC(NC(=O)[C@@H]1CCCN1C(=O)C1(O)c2ccccc2-c2ccccc21)C(=O)c1nc2ccccc2s1` (stereo partly drawn) [(2S)-N-[1-(1,3-benzothiazol-2-yl)-5-carbamimidamido-1-oxopentan-2-yl]-1-[(9-hydroxy-9H-fluoren-9-yl)carbonyl]pyrrolidine-2-carboxamide]: the Ki was 2 nM at Serine protease 1 and 3.1 nM at Prothrombin. The compound also returned an IC50 against Prothrombin of 95 nM.

In turn, `CN[C@H](Cc1ccccc1)C(=O)N1CCC[C@H]1C(=O)NC(CCCN=C(N)N)C(=O)c1nccn1C` (stereo partly drawn) [(2S)-N-[5-carbamimidamido-1-(1-methyl-1H-imidazol-2-yl)-1-oxopentan-2-yl]-1-[(2R)-2-(methylamino)-3-phenylpropanoyl]pyrrolidine-2-carboxamide] returned a Ki on Serine protease 1 of 5800 nM. Besides, on Prothrombin, the IC50 turned out to be 1500 nM and the inhibitory constant (Ki) was determined as 200 nM.

In turn, `CN[C@H](Cc1ccccc1)C(=O)N1CCC[C@H]1C(=O)NC(CCCN=C(N)N)C(=O)c1nccs1` (stereo partly drawn) [(2S)-N-[5-carbamimidamido-1-oxo-1-(1,3-thiazol-2-yl)pentan-2-yl]-1-[(2R)-2-(methylamino)-3-phenylpropanoyl]pyrrolidine-2-carboxamide] yielded a Ki at Serine protease 1 of 1.2 nM. At Prothrombin, the IC50 was 19 nM and the affinity corresponds to a Ki of 2.1 nM.

On Serine protease 1, `CN[C@H](Cc1ccccc1)C(=O)N1CCC[C@H]1C(=O)NC(CCCN=C(N)N)C(=O)c1ccccn1` (stereo partly drawn) [(2S)-N-[5-carbamimidamido-1-oxo-1-(pyridin-2-yl)pentan-2-yl]-1-[(2R)-2-(methylamino)-3-phenylpropanoyl]pyrrolidine-2-carboxamide] displayed a Ki of 73 nM. On Prothrombin, this compound had an IC50 of 930 nM and a Ki of 85 nM.

As to `CN[C@H](Cc1ccccc1)C(=O)N1CCC[C@H]1C(=O)N[C@H](CC(=O)c1nc2ccccc2s1)C1CCC(N)CC1` (stereo partly drawn) [(2S)-N-[(1R)-1-(4-aminocyclohexyl)-3-(1,3-benzothiazol-2-yl)-3-oxopropyl]-1-[(2R)-2-(methylamino)-3-phenylpropanoyl]pyrrolidine-2-carboxamide], the figures for the IC50 against Serine protease 1 and against Prothrombin were 58000 nM and above 100000 nM, respectively.

At Prothrombin, `CN[C@H](Cc1ccccc1)C(=O)N1CCC[C@H]1C(=O)N[C@@H](C(=O)c1nc2ccccc2s1)C1CCC(CN)CC1` (stereo partly drawn) [(2S)-N-[(1R)-1-[4-(aminomethyl)cyclohexyl]-2-(1,3-benzothiazol-2-yl)-2-oxoethyl]-1-[(2R)-2-(methylamino)-3-phenylpropanoyl]pyrrolidine-2-carboxamide] showed an IC50 above 1000 nM.

Consider `CN[C@H](Cc1ccccc1)C(=O)N1CCC[C@H]1C(=O)N[C@@H](CC(=O)c1nc2ccccc2s1)C1CCC(N)CC1` (stereo partly drawn) [(2S)-N-[(1S)-1-(4-aminocyclohexyl)-3-(1,3-benzothiazol-2-yl)-3-oxopropyl]-1-[(2R)-2-(methylamino)-3-phenylpropanoyl]pyrrolidine-2-carboxamide], for which the IC50 is 22000 nM at Serine protease 1 and above 100000 nM on Prothrombin.

In the case of `CN[C@H](Cc1ccccc1)C(=O)N1CCC[C@H]1C(=O)N[C@H](C(=O)c1nc2ccccc2s1)C1CCC(CN)CC1` (stereo partly drawn) [(2S)-N-[(1S)-1-[4-(aminomethyl)cyclohexyl]-2-(1,3-benzothiazol-2-yl)-2-oxoethyl]-1-[(2R)-2-(methylamino)-3-phenylpropanoyl]pyrrolidine-2-carboxamide], on Serine protease 1, the Ki is 54 nM. At Prothrombin, this compound had an IC50 of 17000 nM and a Ki of 920 nM.

As to `CNCCCC[C@@H](NC(=O)[C@@H]1CCCN1C(=O)[C@@H](Cc1ccccc1)NC)C(=O)c1nc2ccccc2s1` [(2S)-N-[(2R)-1-(1,3-benzothiazol-2-yl)-6-(methylamino)-1-oxohexan-2-yl]-1-[(2R)-2-(methylamino)-3-phenylpropanoyl]pyrrolidine-2-carboxamide], the half-maximal inhibitory concentration (IC50) on Prothrombin is above 1000 nM.

For `CN[C@H](Cc1ccccc1)C(=O)N1CCC[C@H]1C(=O)N[C@@H](Cc1ccccc1)C(=O)c1nc2ccccc2s1` [(2S)-N-[(2S)-1-(1,3-benzothiazol-2-yl)-1-oxo-3-phenylpropan-2-yl]-1-[(2R)-2-(methylamino)-3-phenylpropanoyl]pyrrolidine-2-carboxamide], the IC50 at Prothrombin was above 1000 nM.

The compound `CN[C@H](Cc1ccccc1)C(=O)N1CCC[C@H]1C(=O)N[C@@H](Cc1ccc(C(=N)N)cc1)C(=O)c1nc2ccccc2s1` [(2S)-N-[(2S)-1-(1,3-benzothiazol-2-yl)-3-(4-carbamimidoylphenyl)-1-oxopropan-2-yl]-1-[(2R)-2-(methylamino)-3-phenylpropanoyl]pyrrolidine-2-carboxamide] displayed an IC50 against Prothrombin above 1000 nM.

For `CN[C@@H](C(=O)N1CCC[C@H]1C(=O)N[C@@H](CCCN=C(N)N)C(=O)c1nc2ccccc2s1)C(c1ccccc1)c1ccccc1` [(2S)-N-[(2S)-1-(1,3-benzothiazol-2-yl)-5-carbamimidamido-1-oxopentan-2-yl]-1-[(2R)-2-(methylamino)-3,3-diphenylpropanoyl]pyrrolidine-2-carboxamide], 30 nM corresponded to half-maximal inhibition against Serine protease 1 (IC50).

The compound `CN[C@@H](C(=O)N1CCC[C@H]1C(=O)N[C@@H](CCCN=C(N)N)C(=O)c1nc2ccccc2s1)C1CCCCC1` [(2S)-N-[(2S)-1-(1,3-benzothiazol-2-yl)-5-carbamimidamido-1-oxopentan-2-yl]-1-[(2R)-2-cyclohexyl-2-(methylamino)acetyl]pyrrolidine-2-carboxamide] yielded a Ki at Serine protease 1 of 1.2 nM. Further, at Prothrombin (pH 7.4, 37 °C), the IC50 amounted to 5.3 nM and the inhibitory constant (Ki) stood at 0.018 nM.

Take `CNCCCC[C@H](NC(=O)[C@@H]1CCCN1C(=O)[C@@H](Cc1ccccc1)NC)C(=O)c1nc2ccccc2s1` [(2S)-N-[(2S)-1-(1,3-benzothiazol-2-yl)-6-(methylamino)-1-oxohexan-2-yl]-1-[(2R)-2-(methylamino)-3-phenylpropanoyl]pyrrolidine-2-carboxamide]: on Prothrombin, the IC50 was above 1000 nM.

For `CN[C@H](Cc1ccccc1)C(=O)N1CCC[C@H]1C(=O)N[C@@H](C(=O)c1nc2ccccc2s1)C1CCC(N)CC1` (stereo partly drawn) [The relative stereochemistry of the cyclohexyl ring is trans], the Ki on Serine protease 1 is 330 nM. At Prothrombin, the IC50 amounted to 1900 nM and the Ki is 110 nM.

For the origin of these results see BindingDB's records for doi:10.1021/jm0303857 (Johnson & Johnson Pharmaceutical, 2005).
